Data taken from patent US10857112B2, “Small molecule inhibitors of RNA binding motif (RBM) proteins for the treatment of acute cellular injury” (University of Pittsburgh—Of the Commonwealth System of …, priority 2012, dated 2020).

How the values were obtained:
AKT = experiment: Western blot of AKT activation (pAKT473); assay type: cell-based, rat
Procedure: AKT is a key pro-survival kinase that is dysregulated by acute brain injury. Many diverse therapies used to prevent neuronal death activate AKT, including small molecules, endogenously derived survival proteins, and other non-pharmacology based treatments like therapeutic hypothermia. To further elucidate the mechanisms of AQ2S-mediated neuroprotection, the level of activated (phosphorylated) AKT was measured by western blot.
Neurons used for Western blot analysis for grown in 6-well plates. Briefly, neurons were treated with experimental compounds for the indicated time/conditions. At the end of each experiment, neurons were washed in ice cold PBS and harvested in 65 μL RIPA buffer containing protease inhibitors, phosphatase inhibitors, and EDTA. Extracts were collected in 0.5 mL tubes and sonicated for 20-30 seconds. Cell extracts were then spun at 4° C./16,000 g/10 minutes and stored at −80° C. until use. Frozen extracts were thawed on ice and protein concentration measured using the BCA assay (PIERCE). […] of sample protein was loaded per well of a 7.5% SDS precast gel (Biorad), and run for 30 minutes to 1 hour at 200 V. Kaleidoscope protein standards (Biorad) were run parallel to neuron extracts. Proteins were then transferred to PDVF membranes (run at 100 V/4° C./1.5 hours). PDVF membranes were washed once in tris buffered saline (TBS) and blocked for 1 hour in tris buffered saline/tween-20 with 7.5% nonfat milk (TBS-T/milk). Blots were incubated overnight at 4° C. with primary antibodies in TBS-T/milk. Cell Signaling Technology: phospho-AKT473, AKT Total, phospho-ERK1/2, ERK Total, cleavage caspase-3. Santa Cruz Antibodies: NF-κB p50 subunit, NF-κB p65 subunit, and beta actin. Calbiochem: 4-HNE antibody. Blots were washed 3 times (5 minutes each) with TBS, and incubated with secondary antibodies for 2 hours. Invitrogen: goat anti-rabbit or goat anti-mouse. Blots were washed 3 times (5 minutes each) with TBS, and incubated for 1 minute in HRP detection solution (Amersham). Films were exposed to blots and developed (SRX-101A, Konica Minolta Medical & Graphic Inc.). Re-probed blots (e.g. beta actin, AKT total, ERK total) were stripped in western blot stripping buffer (Fischer Scientific) for 10 minutes, washed once with TBS, re-blocked in TBS-T/milk for 1 hour, and incubated overnight with new primary antibody. Films were scanned (EPSON GT 20,000), and densitometry performed using UN-SCAN-IT software (Silk Scientific).

[1] = test system: primary rat cortical neurons; experiment: Stretch injury (in vitro TBI), LDH release and MTT metabolism; assay type: cell-based; conditions: 24 hours after injury
Procedure: (§1) Rat cortical neurons are isolated from E16 embryos, and plated on silicone membranes (with defined elastic properties) held in a custom made stainless steel chamber. DIV 7-9 neurons are subjected to a (computer controlled) preset stretch injury; strain rate 10 s^−1 and 50% membrane deformation. AQ2S or DMSO (vehicle control) was added before (pre-treatment) or after post-treatment) injury, Cell death was assayed ˜24 hours after injury by measuring 1) extracellular LDH in the culture media (released from dying/dead cells), 2) caspase-3/7 activation (a protease involved in execution of cell death), and 3) MTT metabolism (a reagent metabolized by living cells).
LDH is released by dying or injured cells. Primary rat cortical neurons were grown on a custom made stretch-injury device (An in vitro model of TBI). Neurons were pre-treated with 75 μM AQ2S or vehicle only (DMSO control) for 30 minutes, and subjected to a defined stretch injury. 24 hours after injury LDH levels were measured. […] Data was analyzed using a T-test; ***p<0.0001. […]
(3-(4,5-Dimethylthiazol-2-yl)-2,5-diphenyltetrazolium bromide; MTT) is metabolized in living but not dying cells. […] MTT metabolism was measured 24 hours after injury. […] Data was analyzed using ANOVA and Fisher LSD post-hoc test. […]

caspase3/7 = experiment: Stretch injury induced caspase3/7 activity; assay type: cell-based, rat; conditions: 75 μM pre-treated 30 minutes; 24 hours after injury
Procedure: as §1
Caspase activation plays a role in cell death after TBI. Primary rat cortical neurons were grown on a custom made stretch-injury device (An in vitro model of TBI). Neurons were pre-treated with 75 μM AQ2S or vehicle only (DMSO control) for 30 minutes, and subjected to a defined stretch injury. 24 hours after injury caspase3/7 activity was measured. […] (C) In a third experiment, AQ2S was administered 30 minutes before (pre-treatment) or 30 minutes after (post-treatment) stretch-TBI (FIG. 19C) (Experiment 3, n=3/treatment). Data was analyzed using ANOVA and Fisher LSD post-hoc test. Data is significant at (*) p<0.05. Graphs show Mean+SEM.

mice = conditions: intraperitoneal; cited from earlier work
[2] = test system: primary rat cortical neurons; experiment: H2O2 injury, neuronal viability 24 h (CellTiter-Blue); conditions: 40 μM H2O2

With `O=C1c2ccccc2C(=O)c2cc(S(=O)(=O)O)ccc21` [AQ2S, anthraquinone-2-sulfonic acid] the pAKT473 (AKT; 250 nM STS 6 hours, AQ2S) was “marginally increased STS-induced pAKT473 at the 6-hour time point, but did not reach statistical significance”, the pAKT473 (AKT; 250 nM STS 21 hours, 125 μM AQ2S) was “pAKT473 increased in the presence of AQ2S” and the “AKT activity (pAKT473)” value (AKT; 125 μM, 17 hours STS injury) was “significant elevation in AKT activity”. The “ratio of pAKT473/AKT” value (AKT; 125 μM, 17 hours STS injury) was “highest in the AQ2S treated group”, the AKT total (AKT; non-injury, 125 μM) was “No effect on AKT total was observed” and the pAKT473 (AKT; non-injury, 125 μM, 4 hours) was “significant (but modest) rise in pAKT473”. For the same compound, the pAKT473 (AKT; non-injury, 125 μM, 24 hours) was “not significant at 24 hours”, the “stretch injury induced LDH release (neuronal death)” value ([1]; 75 μM pre-treated 30 minutes) was “significantly reduced neuronal death” and the “MTT metabolism after stretch injury” value ([1]; 30 minutes before or 30 minutes after injury) was “increased by pre- or post-treatment with AQ2S”. The “stretch injury induced caspase3/7 activity” value (caspase3/7) was “significantly reduced caspase activation”, the “Acute LD50” value (mice) was 630 mg/kg and the “neuronal death after H2O2 injury” value ([2]; post-treatment 50 μM, 24 h) was “significantly reduced H2O2 induced cell death”. For the same compound, the “neuronal death after H2O2 injury” value ([2]; post-treatment 75 μM, 24 h after injury) was “potently prevented cell death”.
